Reference: patent US8969299B2, “Therapeutic agents for regulating serum phosphorus” (KAI Pharmaceuticals, Inc., priority 2011, dated 2015)
Peptide text beside a SMILES is read from it.

Key:
1K1C model animals = test: plasma PTH reduction after 30-minute IV infusion in 1K1C model animals; assay type: in vivo; details: 3 mg/kg; for effect on plasma PTH: 30-minute IV infusion; for mean PTH reduction: 24 hour time point
Excerpt: These compounds include (i) Ac-crrrr-NH2 (SEQ ID NO:4), (ii) Ac-crrrrr-NH2 (SEQ ID NO:5), (iii) Ac-crrrrrr-NH2 (SEQ ID NO:6), and (iv) Ac-crrrrrrr-NH2 (SEQ ID NO:7). In previous studies, the compounds identified as SEQ ID NO:4, SEQ ID NO:5, SEQ ID NO:6 and SEQ ID NO:7 were each administered by a 30-minute IV infusion to 1K1C model animals and effected a reduction in plasma PTH levels as a percent of the pre-dosing (baseline) level. […] These latter two compounds produced a mean PTH reduction of ˜40% and 60% at the 24 hour time point, respectively. It should be noted that the compounds in this study were administered at the same mg/kg dose but, due to differences in molecular weight, a different number of moles of each compound was actually dosed.

PTH blood concentration = test: in vivo PTH-lowering activity (species not stated)
Description: The contribution of the thiol-containing group in the X1 subunit of the compound (e.g., in certain embodiments where the compound is a peptide on the N-terminal residue), was also investigated in an in vivo study. The PTH-lowering activity of the peptides identified as SEQ ID NO:26 (Ac-carrrar-NH2) and as SEQ ID NO:29 (Ac-arrrar-NH2) was evaluated in vivo.

normal rats = test: PTH reduction in vivo in normal rats; design: species or system rat; details: for decrease in percent PTH: after a single IV administration in normal rats
Description: The data illustrate that cationic and uncharged residues at different positions are not all equal and there are changes in activity as a result of change in the compound structure.
The structure-activity relationship of the thiol-containing group in the X1 subunit of the compound was further analyzed by preparing compounds with differing X1 subunits. The compounds, were tested in vivo in normal rats for activity to reduce PTH. The data illustrated that the thiol-containing X1 subunit can be varied. Compounds with the following in the N-terminal residue were tested—D-cysteine (cys), D-penicillamine (dPen), d-homocysteine (dHcy) and mercaptopropionic acid (Mpa). In addition, a natural or non-natural amino acid, such as beta alanine, can be conjugated to the N-terminal thiol-containing residue. The data illustrated that cationic compounds such as […] (SEQ ID NO:6) containing different thiol-containing groups in the X1 subunit effectively reduce PTH in vivo.
In another study of the structure activity relationship, the contribution of non-cationic amino acids to the potency of the peptides was evaluated by preparing a series of peptides with various D-amino acid residues or glycine or with sterically-hindered non-natural amino acids, substituted at various positions in the peptide Ac-carrrar-NH2 (SEQ ID NO:26) and in the peptide Ac-crrarar-NH2 (SEQ ID NO:153). The peptides were administered as an IV bolus to normal Sprague Dawley rats at a dose of 0.5 mg/kg. An intravenous (IV) bolus of saline was used as a control. Plasma PTH levels were assessed prior to dosing and 1, 2, 3 and 4 hours after dosing.

human CaSR = molecular target: T1, human CaSR (Homo sapiens, UniProt P41180); test: IP1 production in HEK293 cells that express the human CaSR; assay type: cell-based; details: HEK 293 cells
T1 construct: expressed in transfected cells; host or cells: HEK293
T1 sequence (P41180 20-1078): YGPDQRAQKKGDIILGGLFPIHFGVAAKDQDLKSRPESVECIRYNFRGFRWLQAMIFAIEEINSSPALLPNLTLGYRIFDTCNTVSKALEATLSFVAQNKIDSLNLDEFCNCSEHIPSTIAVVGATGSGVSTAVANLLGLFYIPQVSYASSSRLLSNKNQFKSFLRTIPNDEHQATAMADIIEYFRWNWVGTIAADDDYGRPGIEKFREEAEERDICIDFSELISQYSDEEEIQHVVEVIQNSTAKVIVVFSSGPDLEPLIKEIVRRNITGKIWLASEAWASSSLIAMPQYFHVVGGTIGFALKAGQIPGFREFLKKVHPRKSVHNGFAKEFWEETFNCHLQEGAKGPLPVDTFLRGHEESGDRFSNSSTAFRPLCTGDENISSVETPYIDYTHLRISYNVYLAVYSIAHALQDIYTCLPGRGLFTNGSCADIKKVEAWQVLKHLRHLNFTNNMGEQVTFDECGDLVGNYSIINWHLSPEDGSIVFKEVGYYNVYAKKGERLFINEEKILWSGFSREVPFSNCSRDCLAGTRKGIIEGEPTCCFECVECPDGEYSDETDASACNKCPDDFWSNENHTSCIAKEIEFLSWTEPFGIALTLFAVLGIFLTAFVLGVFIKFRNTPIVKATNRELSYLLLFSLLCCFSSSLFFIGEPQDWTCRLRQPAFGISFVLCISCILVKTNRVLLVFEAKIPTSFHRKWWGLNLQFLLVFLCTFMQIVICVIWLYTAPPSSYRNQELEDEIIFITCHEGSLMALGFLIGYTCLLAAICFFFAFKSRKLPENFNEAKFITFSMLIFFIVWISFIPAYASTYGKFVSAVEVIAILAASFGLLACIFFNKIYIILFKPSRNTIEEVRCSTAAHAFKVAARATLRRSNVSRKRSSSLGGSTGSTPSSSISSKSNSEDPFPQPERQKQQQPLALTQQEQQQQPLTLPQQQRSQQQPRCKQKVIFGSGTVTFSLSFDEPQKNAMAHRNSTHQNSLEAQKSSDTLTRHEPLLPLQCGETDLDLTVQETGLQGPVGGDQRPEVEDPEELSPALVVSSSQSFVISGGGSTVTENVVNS
Description: The compounds were characterized in an in vitro human calcium-sensing receptor (CaSR) assay, wherein HEK 293 cells that express the human calcium-sensing receptor were used to measure activity of exemplary compounds.
Further structure-activity relationship studies were conducted using the in vitro cell assay in HEK 293 cells that express the human calcium-sensing receptor.
The activity of a variety of peptides and conjugates was tested for their effects on the human CaSR. These studies were conducted by measuring IP1 production in HEK293 cells that express the human CaSR.

## CC(=O)N[C@H](CS)C(=O)N[C@H](CCCNC(=N)N)C(=O)N[C@H](CCCNC(=N)N)C(=O)N[C@H](CCCNC(=N)N)C(=O)N[C@H](CCCNC(=N)N)C(=O)N[C@H](CCCNC(=N)N)C(N)=O [SEQ ID NO: 5, Ac-crrrrr-NH2] (HELM PEPTIDE1{[ac].[dC].[dR].[dR].[dR].[dR].[dR].[am]}$$$$V2.0)
1K1C model animals
  effect on plasma PTH: significant drop in plasma PTH
  mean PTH reduction: 60%

## CC(=O)N[C@H](CS)C(=O)N[C@H](CCCNC(=N)N)C(=O)N[C@H](CCCNC(=N)N)C(=O)N[C@H](CCCNC(=N)N)C(=O)N[C@H](CCCNC(=N)N)C(=O)N[C@H](CCCNC(=N)N)C(=O)N[C@H](CCCNC(=N)N)C(N)=O [SEQ ID NO: 6, Ac-crrrrrr-NH2]
PTH blood concentration; compared with SEQ ID NO:41
  in vivo activity in comparison: greater and more prolonged activity than Ac-crrrrrrrr-NH2 (SEQ ID NO:41)
Normal rats
  decrease in percent PTH: below the detection limit or essentially zero
1K1C model animals
  effect on plasma PTH: significant drop in plasma PTH
  mean PTH reduction: ~40%

## CC(=O)N[C@H](CS)C(=O)N[C@H](CCCNC(=N)N)C(=O)N[C@H](CCCNC(=N)N)C(=O)N[C@H](CCCNC(=N)N)C(=O)N[C@H](CCCNC(=N)N)C(=O)N[C@H](CCCNC(=N)N)C(=O)N[C@H](CCCNC(=N)N)C(=O)N[C@H](CCCNC(=N)N)C(N)=O [SEQ ID NO: 7, Ac-crrrrrrr-NH2] (HELM PEPTIDE1{[ac].[dC].[dR].[dR].[dR].[dR].[dR].[dR].[dR].[am]}$$$$V2.0)
1K1C model animals
  effect on plasma PTH: significant drop in plasma PTH

## CC(=O)N[C@H](CS)C(=O)N[C@H](C)C(=O)N[C@H](CCCNC(=N)N)C(=O)N[C@H](CCCNC(=N)N)C(=O)N[C@H](CCCNC(=N)N)C(=O)N[C@H](CCCNC(=N)N)C(=O)N[C@H](CCCNC(=N)N)C(N)=O [SEQ ID NO: 8, Ac-carrrrr-NH2] (HELM PEPTIDE1{[ac].[dC].[dA].[dR].[dR].[dR].[dR].[dR].[am]}$$$$V2.0)
Normal rats
  decrease in percent PTH: below the detection limit or essentially zero

## CC(=O)N[C@H](CS)C(=O)N[C@H](CCCNC(=N)N)C(=O)N[C@H](CCCNC(=N)N)C(=O)N[C@H](C)C(=O)N[C@H](CCCNC(=N)N)C(=O)N[C@H](CCCNC(=N)N)C(=O)N[C@H](CCCNC(=N)N)C(N)=O [SEQ ID NO: 10, Ac-crrarrr-NH2] (HELM PEPTIDE1{[ac].[dC].[dR].[dR].[dA].[dR].[dR].[dR].[am]}$$$$V2.0)
Normal rats
  decrease in percent PTH: below the detection limit or essentially zero

## CC(=O)N[C@H](CS)C(=O)N[C@H](CCCNC(=N)N)C(=O)N[C@H](CCCNC(=N)N)C(=O)N[C@H](CCCNC(=N)N)C(=O)N[C@H](C)C(=O)N[C@H](CCCNC(=N)N)C(=O)N[C@H](CCCNC(=N)N)C(N)=O [SEQ ID NO: 11, Ac-crrrarr-NH2] (HELM PEPTIDE1{[ac].[dC].[dR].[dR].[dR].[dA].[dR].[dR].[am]}$$$$V2.0)
Human CaSR
  reduction in in vitro potency relative to Ac-crrrrrr-NH2 (SEQ ID NO:6): 5-10 fold
Normal rats; single IV administration
  in vivo percent PTH AUC reduction: 45%

## CC(=O)N[C@H](CS)C(=O)N[C@H](C)C(=O)N[C@H](CCCNC(=N)N)C(=O)N[C@H](C)C(=O)N[C@H](CCCNC(=N)N)C(=O)N[C@H](CCCNC(=N)N)C(=O)N[C@H](CCCNC(=N)N)C(N)=O [SEQ ID NO: 15, Ac-cararrr-NH2] (HELM PEPTIDE1{[ac].[dC].[dA].[dR].[dA].[dR].[dR].[dR].[am]}$$$$V2.0)
Human CaSR
  ability to activate the CaSR in vitro, in words: significantly reduced potency in vitro in activating the CaSR

## CC(=O)N[C@H](CS)C(=O)N[C@H](C)C(=O)N[C@H](CCCNC(=N)N)C(=O)N[C@H](CCCNC(=N)N)C(=O)N[C@H](CCCNC(=N)N)C(=O)N[C@H](C)C(=O)N[C@H](CCCNC(=N)N)C(N)=O [SEQ ID NO: 26, Ac-carrrar-NH2]
Human CaSR
  ability to activate the CaSR in vitro, in words: retained much of the potency seen with Ac-crrrrrr-NH2 (SEQ ID NO:6)
  reduction in in vitro potency relative to Ac-crrrrrr-NH2 (SEQ ID NO:6): −3 fold
PTH blood concentration; 0.5 mg/kg dose
  PTH blood concentration: decreased PTH blood concentration to a non-detectable level for up to 4 hours after dosing

## CC(=O)N[C@H](C)C(=O)N[C@H](CCCNC(=N)N)C(=O)N[C@H](CCCNC(=N)N)C(=O)N[C@H](CCCNC(=N)N)C(=O)N[C@H](C)C(=O)N[C@H](CCCNC(=N)N)C(N)=O [SEQ ID NO: 29, Ac-arrrar-NH2] (HELM PEPTIDE1{[ac].[dA].[dR].[dR].[dR].[dA].[dR].[am]}$$$$V2.0)
Human CaSR
  ability to activate the CaSR in vitro, in words: dramatically reduced the ability of the compound to activate the CaSR
PTH blood concentration; 9 mg/kg dose
  PTH concentration: did not reduce PTH concentration

## CC(=O)N[C@H](CS)C(=O)N[C@H](CCCNC(=N)N)C(=O)N[C@H](CCCNC(=N)N)C(=O)N[C@H](CCCNC(=N)N)C(=O)N[C@H](CCCNC(=N)N)C(=O)N[C@H](CCCNC(=N)N)C(=O)N[C@H](CCCNC(=N)N)C(=O)N[C@H](CCCNC(=N)N)C(=O)N[C@H](CCCNC(=N)N)C(N)=O [SEQ ID NO: 41, Ac-crrrrrrrr-NH2] (HELM PEPTIDE1{[ac].[dC].[dR].[dR].[dR].[dR].[dR].[dR].[dR].[dR].[am]}$$$$V2.0)
Human CaSR
  ability to activate the CaSR in vitro, in words: more potent at activating the CaSR

## CC(=O)N[C@@H](CS)C(=O)N[C@H](C)C(=O)N[C@@H](CCCNC(=N)N)C(=O)N[C@H](CCCNC(=N)N)C(=O)N[C@@H](CCCNC(=N)N)C(=O)N[C@H](C)C(=O)N[C@@H](CCCNC(=N)N)C(N)=O [SEQ ID NO: 44, Ac-CaRrRaR-NH2]
Human CaSR
  decrease in potency relative to Ac-carrrar-NH2 (SEQ ID NO:26): < 4 fold
  reduction in in vitro potency relative to Ac-crrrrrr-NH2 (SEQ ID NO:6): 10 fold
